For the assay, the system named is oseltamivir-resistant influenza A/Hong Kong/2369/2009 (H1N1pdm) H275Y. Also on record: species or system BALB/c mice. As to conditions: mouse, in vivo.

As for `CCOC(=O)C1=C[C@@H](OC(CC)CC)[C@H](NC(C)=O)[C@@H](N)C1` [oseltamivir], the “protection from weight loss (mean body weights)” value is recorded as “did not protect mice from weight loss”.
